From patent US20250163002A1, “FUSED QUINONOXIME IMIDAZOLE, ONIUM DERIVATIVES THEREOF, PREPARATION AND USE THEREOF” (SHANGHAI JIAO TONG UNIVERSITY, priority 2022, published 2025)
pIC50: −log10 of the molar value. Where a name gives a salt, the structure may show the parent alone.

Key:
Format in all cases: cell-based
A549 = assay: In vitro inhibition test for cancer cell proliferation (MTT), A549; conditions: unit inferred
HeLa = assay: In vitro inhibition test for cancer cell proliferation (MTT), HeLa; conditions: 24 h or 48 h after addition, unit inferred
MCF-7 = assay: In vitro inhibition test for cancer cell proliferation (MTT), MCF-7; conditions: unit inferred
L929 = assay: In vitro cell proliferation inhibition test (MTT), L929; conditions: unit inferred
[1] = Homo sapiens, A549, 24 h or 48 h after addition
[2] = Homo sapiens, MCF7, 24 h or 48 h after addition
[3] = Mus musculus, L929, 24 h or 48 h after addition

| pIC50 (A549; [1]) | pIC50 (HeLa; Homo sapiens, HeLa) | pIC50 (MCF-7; [2]) | Compound | pIC50 (A549; 24 h or 48 h after addition) | pIC50 (HeLa) | pIC50 (MCF-7; 24 h or 48 h after addition) | pIC50 (L929; 24 h or 48 h after addition) | pIC50 (L929; [3]) |
| --- | --- | --- | --- | --- | --- | --- | --- | --- |
|  |  |  | CCCCn1c[n+](C)c2c1C(=O)c1ccccc1C2=NOC [Compound 119, (E) and (Z)-1-butyl-4-(methoxylimino)-3-methyl-9-oxo-4,9-dihydro-1H-naphthol[2,3-d]imidazole-3-iodide] | 6.28 | 4.48 | 4.74 | 5.34 |  |
|  |  |  | CCCCn1c[n+](C)c2c1C(=O)c1ccccc1C2=NOCC [Compound 120, (E) and (Z)-1-butyl-4-(ethoxylimino)-3-methyl-9-oxo-4,9-dihydro-1H-naphthol[2,3-d]imidazole-3-iodide] | 6.16 | 4.59 | 4.89 | < 4.00 |  |
|  |  |  | CCCCn1c[n+](C)c2c1C(=O)c1ccccc1C2=NOCc1ccccc1 [Compound 121, (E) and (Z)-4-((benzyloxy)imino)-1-butyl-3-methyl-9-oxo-4,9-dihydro-1H-naphthol[2,3-d]imidazole-3-iodide] | 7.05 | 4.55 | 5.17 | 4.21 |  |
|  |  |  | CCCCn1c[n+](CC)c2c1C(=O)c1ccccc1C2=NOC [Compound 122, (E) and (Z)-1-butyl-3-ethyl-4-(methoxylimino)-9-oxo-4,9-dihydro-1H-naphthol[2,3-d]imidazole-3-iodide] | 5.74 | 4.28 | 4.48 | < 4.00 |  |
|  |  |  | CC[n+]1cn(C)c2c1C(=NOC)c1ccccc1C2=O [Compound 126, (E) and (Z)-3-ethyl-4-(methoxylimino)-1-methyl-9-oxo-4,9-dihydro-1H-naphthol[2,3-d]imidazole-3-iodide] | 6.23 | 4.41 | 4.91 | 4.07 |  |
|  |  |  | CC(C)CON=C1c2ccccc2C(=O)c2c1[n+](C)cn2C [Compound 129, (E) and (Z)-4-(isobutoxyimino)-1,3-dimethyl-9-oxo-4,9-dihydro-1H-naphthol[2,3-d]imidazole-3-iodide] | 7.15 | 5.06 | 4.92 | 4.58 |  |
|  |  |  | Cn1c[n+](C)c2c1C(=O)c1ccccc1C2=NOC(C)(C)C [Compound 130, (E) and (Z)-4-(tert-butoxyimino)-1,3-dimethyl-9-oxo-4,9-dihydro-1H-naphthol[2,3-d]imidazole-3-iodide] | 6.22 | 4.32 | 4.25 | < 4.00 |  |
|  |  |  | Cn1c[n+](C)c2c1C(=O)c1ccccc1C2=NOCC1CC1 [Compound 131, (E) and (Z)-4-((cyclopropylmethoxy)imino)-1,3-dimethyl-9-oxo-4,9-dihydro-1H-naphthol[2,3-d]imidazole-3-iodide] | 7.15 | 4.68 | 5.00 | 4.61 |  |
|  |  |  | C=CCON=C1c2ccccc2C(=O)c2c1[n+](C)cn2C [Compound 132, (E) and (Z)-4-((allyloxy)imino)-1,3-dimethyl-9-oxo-4,9-dihydro-1H-naphthol[2,3-d]imidazole-3-iodide] | 7.22 | 4.33 | 4.25 | 5.62 |  |
|  |  |  | COc1ccc(CON=C2c3ccccc3C(=O)c3c2[n+](C)cn3C)cc1 [Compound 133, (E) and (Z)-4-(((4-methoxybenzyl)oxy)imino)-1,3-dimethyl-9-oxo-4,9-dihydro-1H-naphthol[2,3-d]imidazole-3-iodide] | 7.10 | 4.62 | 4.75 | 4.80 |  |
|  |  |  | Cn1c[n+](C)c2c1C(=O)c1ccccc1C2=NOCc1ccc(Cl)cc1 [Compound 134, (E) and (Z)-4-(((4-chlorobenzyl)oxy)imino)-1,3-dimethyl-9-oxo-4,9-dihydro-1H-naphthol[2,3-d]imidazole-3-iodide] | 7.15 | 4.76 | 4.59 | 5.31 |  |
|  |  |  | Cn1c[n+](C)c2c1C(=O)c1ccccc1C2=NOCc1ccc(C(F)(F)F)cc1 [Compound 135, (E) and (Z)-1,3-dimethyl-9-oxo-4-(((4-(trifluoromethyl)benzyl)oxy)imino)-4,9-dihydro-1H-naphthol[2,3-d]imidazole-3-iodide] | 6.80 | 4.34 | 4.46 | 5.39 |  |
|  |  |  | Cn1c[n+](C)c2c1C(=O)c1ccccc1C2=NOCc1ccc(F)cc1 [Compound 136, (E) and (Z)-4-(((4-fluorobenzyl)oxy)imino)-1,3-dimethyl-9-oxo-4,9-dihydro-1H-naphthol[2,3-d]imidazole-3-iodide] | 7.22 | 4.62 | 4.53 | 5.36 |  |
|  |  |  | Cn1c[n+](C)c2c1C(=O)c1ccccc1C2=NOCc1c(F)c(F)c(F)c(F)c1F [Compound 137, (E) and (Z)-1,3-dimethyl-9-oxo-4-(((perfluorophenyl)methoxy)imino)-4,9-dihydro-1H-naphthol[2,3-d]imidazole-3-iodide] | 7.30 | 4.81 | 4.61 | 5.01 |  |
|  |  |  | Cn1c[n+](C)c2c1C(=O)c1ccccc1C2=NOCc1ccccc1 [Compound 138, (E) and (Z)-4-((benzyloxy)imino)-1,3-dimethyl-9-oxo-4,9-dihydro-1H-naphthol[2,3-d]imidazole-3-iodide] | 8.40 | 5.38 | 5.23 | 4.59 |  |
|  |  |  | Cn1c[n+](C)c2c1C(=O)c1ccccc1C2=NOCc1ccccc1 [Compound 139, (E) and (Z)-4-((benzyloxy)imino)-1,3-dimethyl-9-oxo-4,9-dihydro-1H-naphthol[2,3-d]imidazole-3-p-toluenesulfonamide] | 8.30 | 5.17 | 5.07 | 4.70 |  |
|  |  |  | Cn1c[n+](C)c2c1C(=O)c1ccccc1C2=NOCc1ccccc1 [Compound 140, (E) and (Z)-4-((benzyloxy)imino)-1,3-dimethyl-9-oxo-4,9-dihydro-1H-naphthol[2,3-d]imidazole-3-dimethyl sulfate] | 8.15 | 5.01 | 4.96 | 4.46 |  |
|  |  |  | Cn1c[n+](C)c2c1C(=O)c1ccccc1C2=NOCc1ccc([N+](=O)[O-])cc1 [Compound 141, (E) and (Z)-1,3-dimethyl-4-(((4-nitrobenzyl)oxy)imino)-9-oxo-4,9-dihydro-1H-naphthol[2,3-d]imidazole-3-iodide] | 7.30 | 4.62 | 4.34 | 4.63 |  |
|  |  |  | Cn1c[n+](C)c2c1C(=O)c1ccccc1C2=NOc1ccccc1 [Compound 142, (E) and (Z)-4-((phenoxy)imino)-1,3-dimethyl-9-oxo-4,9-dihydro-1H-naphthol[2,3-d]imidazole-3-iodide] | 7.22 | 4.47 | 4.36 | 4.21 |  |
|  |  |  | Cn1c[n+](C)c2c1C(=O)c1ccccc1/C2=N\OCC1OCCO1 [Compound 143, (E)-4-(((1,3-dioxoheterocycle-2-yl)methoxy)imino)-1,3-dimethyl-9-oxo-4,9-dihydro-1H-naphthol[2,3-d]imidazole-3-iodide] | 7.52 | 4.59 | 4.46 | 4.46 |  |
|  |  |  | COCCO/N=C1\c2ccccc2C(=O)c2c1[n+](C)cn2C [Compound 144, (E)-4-((2-methoxyethoxy)imino)-1,3-dimethyl-9-oxo-4,9-dihydro-1H-naphthol[2,3-d]imidazole-3-iodide] | 7.22 | 4.63 | 4.48 | 4.33 |  |
| 7.40 | 4.47 | 4.46 | Cn1c[n+](C)c2c1C(=O)c1ccccc1/C2=N\OCCOCc1ccccc1 [Compound 145, (E)-4-((2-(benzyloxy)ethoxy)imino)-1,3-dimethyl-9-oxo-4,9-dihydro-1H-naphthol[2,3-d]imidazole-3-iodide] |  |  |  |  | 4.35 |
| 8.05 | 4.64 | 4.48 | COCCOCCO/N=C1\c2ccccc2C(=O)c2c1[n+](C)cn2C [Compound 146, (E)-4-((2-(2-methoxyethoxy)ethoxy)imino)-1,3-dimethyl-9-oxo-4,9-dihydro-1H-naphthol[2,3-d]imidazole-3-iodide] |  |  |  |  | 4.61 |
| 7.70 | 4.88 | 4.57 | COCCOCCOCCO/N=C1\c2ccccc2C(=O)c2c1[n+](C)cn2C [Compound 147, (E) and (Z)-4-((2-(2-(2-methoxyethoxy)ethoxy)ethoxy)imino)-1,3-dimethyl-9-oxo-4,9-dihydro-1H-naphthol[2,3-d]imidazole-3-iodide] |  |  |  |  | 4.80 |
|  |  |  | CCCCn1c2c([n+](C)c1-c1cc(OC)c(OC)c(OC)c1)C(=NOCc1ccccc1)c1ccccc1C2=O [Compound 148, (E) and (Z)-4-((benzyloxy)imino)-1-butyl-3-methyl-9-oxo-2-(3,4,5-trimethoxyphenyl)-4,9-dihydro-1H-naphthol[2,3-d]imidazole-3-iodide] | 7.05 | 4.63 | 4.46 | 4.36 |  |
|  |  |  | Cn1c[n+](C)c2c1C(=O)c1cc3ccccc3cc1C2=NOCc1ccccc1 [Compound 149, (E) and (Z)-4-((benzyloxy)imino)-1,3-dimethyl-11-oxo-4, 11-dihydro-1H-anthracene[2,3-d]imidazole-3-iodide] | 6.48 | 4.17 | 4.12 | < 4.00 |  |
|  |  |  | C=CCON=C1c2cc3ccccc3cc2C(=O)c2c1[n+](C)cn2C [Compound 150, (E) and (Z)-4-((allyloxy)imino)-1,3-dimethyl-11-oxo-4,11-dihydro-1H-anthracene[2,3-d]imidazole-3-iodide] | 6.34 | 4.46 | 4.34 | 4.01 |  |
|  |  |  | Cn1c[n+](C)c2c1C(=O)c1cc3ccccc3cc1C2=NOCc1ccc([N+](=O)[O-])cc1 [Compound 151, (E) and (Z)-1,3-dimethyl-4-(((4-nitrobenzyl)oxy)imino)-11-oxo-4,11-dihydro-1H-anthracene[2,3-d]imidazole-3-iodide] | 6.92 | 4.25 | 4.10 | 4.05 |  |
